# Results published in article PMC4193777 (PLoS ONE, 2014).
# Experiments:
# FPR2 [1] = molecular target: T1, FPR2 (Homo sapiens, UniProt P25090); test: Homologous desensitization of neutrophils (superoxide); type: cell-based; conditions: first F2Pal10 (500 nM) then WKYMVM (40 nM), or reversed order, five minutes apart
# T1 construct: Human peripheral blood neutrophils were isolated from buffy coats from healthy blood donors; endogenous in cells; host or cells: primary human peripheral blood neutrophils from buffy coats of healthy donors
# T1 sequence (P25090 1-351): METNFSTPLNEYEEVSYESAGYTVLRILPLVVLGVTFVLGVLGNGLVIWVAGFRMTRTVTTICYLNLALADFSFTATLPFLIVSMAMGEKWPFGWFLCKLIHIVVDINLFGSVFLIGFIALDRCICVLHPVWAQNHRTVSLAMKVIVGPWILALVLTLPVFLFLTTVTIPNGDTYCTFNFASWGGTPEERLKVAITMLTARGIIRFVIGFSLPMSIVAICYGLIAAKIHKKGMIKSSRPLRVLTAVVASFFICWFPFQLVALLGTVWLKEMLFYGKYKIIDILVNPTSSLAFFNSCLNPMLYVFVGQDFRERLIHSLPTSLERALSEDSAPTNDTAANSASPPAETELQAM
# Method: (§1) Human peripheral blood neutrophils were isolated from buffy coats from healthy blood donors using dextran sedimentation and Ficoll-Paque gradient centrifugation as described. The remaining erythrocytes were disrupted by hypotonic lysis, the neutrophils were washed twice, resuspended in KRG, and stored on melting ice until use. This isolation procedure permits cells to be purified with minimal granule mobilization.
# The NADPH-oxidase activity was determined using isoluminol-enhanced chemiluminescence (CL), [27]. The CL activity was measured in a six-channel Biolumat LB 9505 (Berthold Co., Wildbad, Germany), using disposable 4-ml polypropylene tubes with a 900 µl reaction mixture containing 10^5 cells, isoluminol (2×10^−5 M) and HRP (2 U). The tubes were equilibrated in the Biolumat for 5 min at 37°C, after which the stimulus (100 µl) was added and the light emission was recorded continuously. […]
# Figure 1 The F2Pal10 pepducin specifically activates FPR2. A. Primary human neutrophils were activated by F2Pal10 (500 nM) in the absence (solid line) or presence of the receptor specific inhibitor PBP10 (FPR2 specific inhibitor; 1 µM final concentration, dashed line) or the FPR1 antagonist cyclosporin H (CysH; 1 µM final concentration, dotted line) and the release of superoxide anions was recorded continuously. […] The release of superoxide anions was recorded continuously. […]
# desensitized FPR2 = test: PAF-induced cross-talk reactivation of desensitized FPR2 (superoxide); type: cell-based, human
# Method: as §1
# (§2) The NADPH-oxidase activity was determined using isoluminol-enhanced chemiluminescence (CL), [27]. The CL activity was measured in a six-channel Biolumat LB 9505 (Berthold Co., Wildbad, Germany), using disposable 4-ml polypropylene tubes with a 900 µl reaction mixture containing 10^5 cells, isoluminol (2×10^−5 M) and HRP (2 U). The tubes were equilibrated in the Biolumat for 5 min at 37°C, after which the stimulus (100 µl) was added and the light emission was recorded continuously. Receptor desensitized cells were defined as naïve (non-desensitized) cells that had first been stimulated with a receptor specific agonist and returned to baseline after the resulting release of superoxide before a second stimulation. When reactivation experiments were performed with antagonists, the antagonists were added to the CL reaction mixture 1 min before the second stimulation. For studies with signaling inhibitors, cells were incubated with inhibitors at 37°C for 15 min before agonist addition. Control cells received no treatment but were incubated under the same conditions.
# Figure 3 PAF- or ATP-stimulation induces reactivation of desensitized FPR2. […] A representative experiment is shown and the time point for addition of FPR2 agonists is indicated by the first arrow, the time point for PAF stimulation (100 nM final concentration) with the second arrow. The control PAF response induced in naïve (non-desensitized) neutrophils is shown for comparison (dotted line). Abscissa: Time of study (min); ordinate: Superoxide production (Mcpm). B. Naïve neutrophils were first desensitized with F2Pal10 (F2Pal10des., 500 nM final concentration) and subsequently stimulated with PAF (100 nM final concentration; time point for PAF addition is indicated by an arrow). The FPR2 specific inhibitor PBP10 (1 µM) was added 1 min prior to PAF stimulation (dashed line) and the release of superoxide anions was recorded continuously. The PAF responses induced in naïve cells (solid line), as well as in F2Pal10-desensitized cells receiving no PBP10 (dotted line), are shown for comparison. Abscissa: Time of study (min); ordinate: Superoxide production (Mcpm). C. Effect of calyculin A on receptor cross-talk induced FPR2 reactivation. Cells desensitized with F2Pal10 (F2Pal10des.) were incubated with the phosphatase inhibitor calyculin A (60 nM; solid line) or buffer as control (dashed line) for 10 min at 37°C prior to PAF stimulation (100 nM). The release of superoxide anions was recorded continuously. Abscissa: Time of study (min); ordinate: Superoxide production (Mcpm). […] Abscissa: Time of study (min); ordinate: Superoxide production (Mcpm). […] The results are given as peak values of superoxide production following addition of ATPγS (mean+SEM; n = 3).
# Figure 4 More pronounced reactivation was induced by PAF in neutrophils desensitized by the pepducin F2Pal10. […] The results are given as peak values of superoxide production from three separate experiments for the first stimulation with FPR2 agonists (mean+SEM, n = 3). […]
# FPR2 [2] = molecular target: T1, FPR2; test: Neutrophil NADPH-oxidase activity (superoxide release), direct activation of naive cells; type: cell-based
# Method: as §1, §2
# Data analysis was performed using GraphPad Prism 6.0 (Graphpad Software, San Diego, CA, USA).
# Representative experiments out of more than five are shown and an arrow indicates the time point for agonist addition. Abscissa: Time of study (min); ordinate: Superoxide production (Mcpm).
structure (smiles),measurement,setting,value
CSCC[C@H](NC(=O)[C@@H](NC(=O)[C@H](CCSC)NC(=O)[C@H](Cc1ccc(O)cc1)NC(=O)[C@H](CCCCN)NC(=O)[C@@H](N)Cc1c[nH]c2ccccc12)C(C)C)C(N)=O [WKYMVM],desensitization to second FPR2 agonist,FPR2 [1],vice versa
same,"type of agonism, cross-talk reactivation",desensitized FPR2; PAF- and ATP-induced cross-talk reactivation of desensitized FPR2,partial agonist
same,priming of PAF response in desensitized neutrophils,"desensitized FPR2; desensitizing agent F2Pal10 500 nM or WKYMVM 40 nM, PAF 100 nM",primed in their response to PAF
same,"concentration inducing comparable sub-maximum response, pair 1","FPR2 [2]; first stimulation of naive neutrophils, 10 nM WKYMVM≈100 nM F2Pal10",10 nM
same,"concentration inducing comparable sub-maximum response, pair 2","FPR2 [2]; first stimulation of naive neutrophils, 25 nM WKYMVM≈250 nM F2Pal10",25 nM
same,"concentration inducing comparable sub-maximum response, pair 3","FPR2 [2]; first stimulation of naive neutrophils, 40 nM WKYMVM≈500 nM F2Pal10",40 nM
same,time to peak of radical production,FPR2 [2]; upon stimulation of neutrophils,around one
